From paper PMC10786919, “Design-rules for stapled peptides with in vivo activity and their application to Mdm2/X antagonists” (Nature Communications, 2024)
Positions of bridges follow the written chain, without caps; N, C: chain ends. Non-standard residues stand in square brackets, D forms with d. Residues, ends and D or L forms follow the SMILES beside them. tBuAla = CC(C)(C)C[C@H](N)C(=O)O; R8 = C=CCCCCCC[C@@](C)(N)C(=O)O; R5 = C=CCCC[C@@](C)(N)C(=O)O; S5 = C=CCCC[C@](C)(N)C(=O)O; Ahx = NCCCCCC(=O)O

Legend:
Type in all cases: cell-based
HCT116 cells = experiment: Lactate dehydrogenase (LDH) release assay
In short: (§1)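 LDH release, fluorometric membrane-integrity read-out; HCT116 with stable p53-responsive β-lactamase reporter; 8000 cells/well; 0.5% DMSO final; geometric mean, n≥3 biological replicates.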

[1] = Lactate dehydrogenase (LDH) release assay; details: LDH: Cytotoxicity assay EC50
In short: as §1

[2] = test system: Jump-In T-REx CHO-K1 BLA cells; experiment: cells; details: 0% FBS 4Hr; for EC50: read-out: TETCHO: Counterscreen EC50
Protocol: This assay was based on Jump-In™ T-REx™ CHO-K1 BLA cells containing a stably integrated β-lactamase under the control of an inducible cytomegalovirus (CMV) promoter. Cells were maintained in Dulbecco’s […] Eagle Medium (DMEM) with 10% fetal bovine serum (FBS), Blasticidin, and Penicillin/Streptomycin and then transferred to 1.5 ml freezing vials and stored under liquid nitrogen in growth media containing 5% DMSO. […] Cells were seeded into a 384-well plate at a density of 4000 cells per well. Peptides were then dispensed to each well using a liquid handler, ECHO 555 and incubated for 16 h. The final working concentration of DMSO was 0.5%. β-lactamase activity was detected using the ToxBLAzer Dual Screen (Invitrogen), as per the manufacturer’s instructions. Measurements were carried out using the Envision multiplate reader (Perkin–Elmer). Counterscreen activity was defined as the amount of β-lactamase activity induced by tetracycline. Measurements were taken a minimum of three times (biological replicates) and values are reported as geometric means of the replicates.

[3] = test system: p53 responsive β-lactamase reporter in HCT116 cells; experiment: cells; details: 0% FBS 4Hr; read-out: p53 reporter assay EC50
In short: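 Read-out used the ToxBLAzer Dual Screen for β-lactamase driven by a stably integrated p53-responsive reporter. Assay: 8000 HCT116 cells per well at 0.5% final DMSO. Reported numbers are geometric means over a minimum of three biological replicates.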

SMILES	LDH: Cytotoxicity assay % Effect (HCT116 cells) [%]	EC50 [1] [µM]	TETCHO: Counterscreen % Effect [2] [%]	EC50 [2] [µM]	EC50 [3] [µM]
CC(=O)N[C@H](C(=O)N[C@@H](CO)C(=O)N[C@@H](Cc1ccccc1)C(=O)N[C@]1(C)CCCCCCC=CCCC[C@@](C)(C(N)=O)NC(=O)[C@H](CC(C)(C)C)NC(=O)[C@H](CC(C)C)NC(=O)[C@H](C)NC(=O)[C@H](Cc2c[nH]c3ccccc23)NC(=O)[C@H](Cc2ccc(O)cc2)NC(=O)[C@H](CCC(=O)O)NC1=O)[C@@H](C)O [MP-149] (Ac-TSF[R8]EYWAL[tBuAla][S5]-NH2; staple 4-11)	42.59	28.3	20.68	> 50	12.6
CC(=O)N[C@@H](CCCNC(=N)N)C(=O)N[C@@H](CCCNC(=N)N)C(=O)N[C@@H](CCCNC(=N)N)C(=O)NCCCCCC(=O)N[C@H](C(=O)N[C@@H](CO)C(=O)N[C@@H](Cc1ccccc1)C(=O)N[C@]1(C)CCCCCCC=CCCC[C@@](C)(C(=O)N[C@@H](CCC(=O)O)C(=O)N[C@@H](CC(N)=O)C(=O)N[C@@H](Cc2ccccc2)C(N)=O)NC(=O)[C@H](CC(C)C)NC(=O)[C@H](CC(C)C)NC(=O)[C@H](C)NC(=O)[C@H](Cc2c[nH]c3ccccc23)NC(=O)[C@H](Cc2ccc(O)cc2)NC(=O)[C@H](CCC(=O)O)NC1=O)[C@@H](C)O [MP-2009] (Ac-RRR[Ahx]TSF[R8]EYWALL[S5]ENF-NH2; staple 8-15)	32.46	> 50	68.36	16.6	9.74
CC(=O)N[C@H](C(=O)N[C@@H](CO)C(=O)N[C@@H](Cc1ccccc1)C(=O)NC(C)(C)C(=O)N[C@@H](CCC(=O)O)C(=O)N[C@@H](Cc1ccc(O)cc1)C(=O)N[C@@H](Cc1c[nH]c2ccccc12)C(=O)N[C@@H](C)C(=O)N[C@@H](CC(C)C)C(=O)N[C@@H](CC(C)C)C(=O)NC(C)(C)C(=O)N[C@@H](CCC(=O)O)C(N)=O)[C@@H](C)O [MP-1176]	12.95	> 50	-0.7808	> 50	> 50
CC(=O)N[C@H](C(=O)N[C@@H](CO)C(=O)N[C@@H](Cc1ccccc1)C(=O)N[C@]1(C)CCCCCCC=CCCC[C@@](C)(C(=O)N[C@@H](CCC(=O)O)C(=O)N[C@@H](CC(N)=O)C(=O)N[C@@H](Cc2ccccc2)C(N)=O)NC(=O)[C@H](CC(C)C)NC(=O)[C@H](CC(C)C)NC(=O)[C@H](C)NC(=O)[C@H](Cc2c[nH]c3ccccc23)NC(=O)[C@H](Cc2ccc(O)cc2)NC(=O)[C@H](CCC(=O)O)NC1=O)[C@@H](C)O [MP-1169]	37.3	34.1	11.25	> 50	5.34
CC(=O)N[C@@H](CCCCN)C(=O)N[C@@H](CCCCN)C(=O)N[C@H](C(=O)N[C@@H](CO)C(=O)N[C@@H](Cc1ccccc1)C(=O)N[C@]1(C)CCCCCCC=CCCC[C@@](C)(C(=O)N[C@@H](CCC(=O)O)C(N)=O)NC(=O)[C@H](CC(C)(C)C)NC(=O)[C@H](CC(C)C)NC(=O)[C@H](C)NC(=O)[C@H](Cc2c[nH]c3ccccc23)NC(=O)[C@H](Cc2ccc(O)cc2)NC(=O)[C@H](CCC(=O)O)NC1=O)[C@@H](C)O [MP-1159] (Ac-KKTSF[R8]EYWAL[tBuAla][S5]E-NH2; staple 6-13)	-1.606	> 50	44.44	49.2	5.08
CC(=O)N[C@H](C(=O)N[C@@H](CO)C(=O)N[C@@H](Cc1ccccc1)C(=O)N[C@]1(C)CCCC=CCCC[C@](C)(C(=O)N[C@@H](CC(C)C)C(=O)N[C@@H](CC(C)C)C(=O)N2CCC[C@H]2C(N)=O)NC(=O)[C@H](Cc2c[nH]c3ccccc23)NC(=O)[C@H](Cc2ccc(O)cc2)NC(=O)[C@H](CCC(=O)O)NC1=O)[C@@H](C)O [MP-1174] (Ac-TSF[R5]EYW[R5]LLP-NH2; staple 4-8)	2.374	> 50	7.183	> 50	18.7
CC(=O)N[C@@H](CCCCN)C(=O)N[C@@H](CCCCN)C(=O)NCCCCCC(=O)N[C@H](C(=O)N[C@@H](CO)C(=O)N[C@@H](Cc1ccccc1)C(=O)N[C@]1(C)CCCCCCC=CCCC[C@@](C)(C(=O)N[C@@H](CCC(=O)O)C(=O)N[C@@H](CC(N)=O)C(=O)N[C@@H](Cc2ccc(O)cc2)C(N)=O)NC(=O)[C@H](CC(C)C)NC(=O)[C@H](CC(C)C)NC(=O)[C@H](C)NC(=O)[C@H](Cc2c[nH]c3ccccc23)NC(=O)[C@H](Cc2ccc(O)cc2)NC(=O)[C@H](CCC(=O)O)NC1=O)[C@@H](C)O [MP-013] (Ac-KK[Ahx]TSF[R8]EYWALL[S5]ENY-NH2; staple 7-14)	-1.001	> 50	11.6	> 50	8.65
CC(=O)N[C@@H](CCCCN)C(=O)N[C@@H](CCCCN)C(=O)N[C@H](C(=O)N[C@@H](CO)C(=O)N[C@@H](Cc1ccccc1)C(=O)N[C@]1(C)CCCCCCC=CCCC[C@@](C)(C(N)=O)NC(=O)[C@H](CC(C)(C)C)NC(=O)[C@H](CC(C)C)NC(=O)[C@H](C)NC(=O)[C@H](Cc2c[nH]c3ccccc23)NC(=O)[C@H](Cc2ccc(O)cc2)NC(=O)[C@H](CCC(=O)O)NC1=O)[C@@H](C)O [MP-152] (Ac-KKTSF[R8]EYWAL[tBuAla][S5]-NH2; staple 6-13)	49.97	17.2	34.57	36.5	19.3
CC(=O)N[C@H](C(=O)N[C@@H](CO)C(=O)N[C@@H](Cc1ccccc1)C(=O)N[C@]1(C)CCCCCCC=CCCC[C@@](C)(C(=O)N[C@@H](CO)C(=O)N[C@@H](C)C(=O)N[C@@H](C)C(=O)N[C@@H](CCC(=O)O)C(N)=O)NC(=O)[C@H](CC(C)(C)C)NC(=O)[C@H](CC(C)C)NC(=O)[C@H](C)NC(=O)[C@H](Cc2c[nH]c3ccccc23)NC(=O)[C@H](Cc2ccc(O)cc2)NC(=O)[C@H](CCC(=O)O)NC1=O)[C@@H](C)O [MP-143] (Ac-TSF[R8]EYWAL[tBuAla][S5]SAAE-NH2; staple 4-11)	5.215	> 50	0.6237	> 50	8.92
CC(=O)N[C@@H](CCCNC(=N)N)C(=O)N[C@@H](CCCNC(=N)N)C(=O)N[C@@H](CCCNC(=N)N)C(=O)NCCCCCC(=O)N[C@H](C(=O)N[C@@H](CO)C(=O)N[C@@H](Cc1ccccc1)C(=O)N[C@]1(C)CCCCCCC=CCCC[C@@](C)(C(=O)N[C@@H](CCC(=O)O)C(=O)N[C@@H](CC(N)=O)C(=O)N[C@@H](Cc2ccc(O)cc2)C(N)=O)NC(=O)[C@H](CC(C)C)NC(=O)[C@H](CC(C)C)NC(=O)[C@H](C)NC(=O)[C@H](Cc2c[nH]c3ccccc23)NC(=O)[C@H](Cc2ccc(O)cc2)NC(=O)[C@H](CCC(=O)O)NC1=O)[C@@H](C)O [MP-012] (Ac-RRR[Ahx]TSF[R8]EYWALL[S5]ENY-NH2; staple 8-15)	36.73	> 50	23.79	> 50	34.2
CC(=O)N[C@H](C(=O)N[C@@H](CO)C(=O)N[C@@H](Cc1ccccc1)C(=O)N[C@]1(C)CCCCCCC=CCCC[C@@](C)(C(=O)NCCCCCC(=O)N[C@@H](CCCCN)C(N)=O)NC(=O)[C@H](CC(C)C)NC(=O)[C@H](CC(C)C)NC(=O)[C@H](C)NC(=O)[C@H](Cc2c[nH]c3ccccc23)NC(=O)[C@H](Cc2ccc(O)cc2)NC(=O)[C@H](CCC(=O)O)NC1=O)[C@@H](C)O [MP-164]	4.255	> 50	0.7814	> 50	7.83
CC(=O)N[C@@H](Cc1c[nH]cn1)C(=O)N[C@@H](Cc1c[nH]cn1)C(=O)N[C@@H](Cc1c[nH]cn1)C(=O)NCCCCCC(=O)N[C@H](C(=O)N[C@@H](CO)C(=O)N[C@@H](Cc1ccccc1)C(=O)N[C@]1(C)CCCCCCC=CCCC[C@@](C)(C(N)=O)NC(=O)[C@H](CC(C)C)NC(=O)[C@H](CC(C)C)NC(=O)[C@H](C)NC(=O)[C@H](Cc2c[nH]c3ccccc23)NC(=O)[C@H](Cc2ccc(O)cc2)NC(=O)[C@H](CCC(=O)O)NC1=O)[C@@H](C)O [MP-008]	42.18	28.5	75.71	> 50	17.9
